Tested on: skin
Test: Affymetrix microarray of skin, DBP-4 hr and analogs vs. untreated; gene selection by log-2 fold change, Wilcoxon, Kendall tau (Tables 8, 9)
Type: in vivo, mouse

CCN(CC)C(=O)c1cccc(C)c1 [DEET, N,N-diethyl-toluamide]
Log2 Expression Level (gene #1 of Table 8): 6.74 | Log2 Expression Level (gene #2 of Table 8): 6.44 | Log2 Expression Level (gene #3 of Table 8): 9.66 | Log2 Expression Level (gene #4 of Table 8): 9.66 | Log2 Expression Level (gene #5 of Table 8): 8.20 | Log2 Expression Level (gene #6 of Table 8): 7.42 | Log2 Expression Level (gene #7 of Table 8): 6.76 | Log2 Expression Level (gene #8 of Table 8): 7.42 | Log2 Expression Level (gene #9 of Table 8): 7.42 | Log2 Expression Level (gene #10 of Table 8): 7.42 | Log2 Expression Level (gene #11 of Table 8): 6.76 | Log2 Expression Level (gene #12 of Table 8): 6.76 | Log2 Expression Level (gene #13 of Table 8): 6.76 | Log2 Expression Level (gene #14 of Table 8): 5.31 | Log2 Expression Level (gene #15 of Table 8): 5.31 | Log2 Expression Level (gene #16 of Table 8): 7.68 | Log2 Expression Level (gene #17 of Table 8): 9.60 | Log2 Expression Level (gene #18 of Table 8): 9.60 | Log2 Expression Level (gene #19 of Table 8): 10.04 | Log2 Expression Level (gene #20 of Table 8): 11.87 | Log2 Expression Level (gene #21 of Table 8): 9.61 | Log2 Expression Level (gene #22 of Table 8): 8.47 | Log2 Expression Level (gene #23 of Table 8): 7.75 | Log2 Expression Level (gene #24 of Table 8): 8.21 | Log2 Expression Level (gene #25 of Table 8): 8.21 | Log2 Expression Level (gene #26 of Table 8): 8.83 | Log2 Expression Level (gene #27 of Table 8): 8.83 | Log2 Expression Level (gene #28 of Table 8): 8.83 | Log2 Expression Level (gene #29 of Table 8): 7.20 | Log2 Expression Level (gene #30 of Table 8): 9.06 | Log2 Expression Level (gene #31 of Table 8): 9.06 | Log2 Expression Level (gene #32 of Table 8): 9.06 | Log2 Expression Level (gene #33 of Table 8): 6.10 | Log2 Expression Level (gene #34 of Table 8): 7.43 | Log2 Expression Level (gene #35 of Table 8): 7.43 | Log2 Expression Level (gene #36 of Table 8): 9.66 | Log2 Expression Level (gene #37 of Table 8): 9.66 | Log2 Expression Level (gene #38 of Table 8): 9.66 | Log2 Expression Level (gene #39 of Table 8): 8.11 | Log2 Expression Level (gene #40 of Table 8): 8.22 | Log2 Expression Level (gene #41 of Table 8): 8.43 | Log2 Expression Level (gene #42 of Table 8): 7.97 | Log2 Expression Level (gene #43 of Table 8): 7.97 | Log2 Expression Level (gene #44 of Table 8): 8.43 | Log2 Expression Level (gene #45 of Table 8): 7.97 | Log2 Expression Level (gene #46 of Table 8): 8.43 | Log2 Expression Level (gene #47 of Table 8): 9.23 | Log2 Expression Level (gene #48 of Table 8): 9.23 | Log2 Expression Level (gene #49 of Table 8): 9.23 | Log2 Expression Level (gene #50 of Table 8): 10.17 | Log2 Expression Level (gene #51 of Table 8): 8.15 | Log2 Expression Level (gene #52 of Table 8): 10.64 | Log2 Expression Level (gene #53 of Table 8): 9.22 | Log2 Expression Level (gene #54 of Table 8): 10.01 | Log2 Expression Level (gene #55 of Table 8): 8.18 | Log2 Expression Level (gene #56 of Table 8): 10.41 | Log2 Expression Level (gene #57 of Table 8): 9.06 | Log2 Expression Level (gene #58 of Table 8): 9.46 | Log2 Expression Level (gene #59 of Table 8): 8.46 | Log2 Expression Level (gene #60 of Table 8): 7.24 | Log2 Expression Level (gene #61 of Table 8): 12.16 | Log2 Expression Level (gene #62 of Table 8): 8.52 | Log2 Expression Level (gene #63 of Table 8): 11.76 | Log2 Expression Level (gene #64 of Table 8): 11.40 | Log2 Expression Level (gene #65 of Table 8): 8.25 | Log2 Expression Level (gene #66 of Table 8): 9.07 | Log2 Expression Level (gene #67 of Table 8): 5.71 | Log2 Expression Level (gene #68 of Table 8): 10.87 | Log2 Expression Level (gene #69 of Table 8): 7.06 | Log2 Expression Level (gene #70 of Table 8): 5.72 | Log2 Expression Level (gene #71 of Table 8): 7.84 | Log2 Expression Level (gene #72 of Table 8): 9.65 | Log2 Expression Level (gene #73 of Table 8): 8.88 | Log2 Expression Level (gene #74 of Table 8): 7.48 | Log2 Expression Level (gene #75 of Table 8): 10.04 | Log2 Expression Level (gene #76 of Table 8): 5.76 | Log2 Expression Level (gene #77 of Table 8): 9.62 | Log2 Expression Level (gene #78 of Table 8): 9.85 | Log2 Expression Level (gene #79 of Table 8): 8.03 | Log2 Expression Level (gene #80 of Table 8): 13.18 | Log2 Expression Level (gene #81 of Table 8): 6.94 | Log2 Expression Level (gene #82 of Table 8): 6.28 | Log2 Expression Level (gene #83 of Table 8): 8.09 | Log2 Expression Level (gene #84 of Table 8): 8.70 | Log2 Expression Level (gene #85 of Table 8): 9.57 | Log2 Expression Level (gene #86 of Table 8): 8.02 | Log2 Expression Level (gene #87 of Table 8): 11.32 | Log2 Expression Level (gene #88 of Table 8): 10.03 | Log2 Expression Level (gene #89 of Table 8): 6.25 | Log2 Expression Level (gene #90 of Table 8): 11.13 | Log2 Expression Level (gene #91 of Table 8): 9.01 | Log2 Expression Level (gene #92 of Table 8): 7.14 | Log2 Expression Level (gene #93 of Table 8): 10.13 | Log2 Expression Level (gene #94 of Table 8): 9.19 | Log2 Expression Level (gene #95 of Table 8): 7.20 | Log2 Expression Level (gene #96 of Table 8): 9.02 | Log2 Expression Level (gene #97 of Table 8): 5.86 | Log2 Expression Level (gene #98 of Table 8): 6.82 | Log2 Expression Level (gene #99 of Table 8): 10.05 | Log2 Expression Level (gene #100 of Table 8): 8.86

— patent US20150307938A1, “METHOD TO IDENTIFY A NOVEL CLASS OF IMMUNOLOGIC ADJUVANTS” (Lancell, L.L.C., priority 2011, published 2015)
